Laboratory results: PubChem BioAssay AID1895 (NMMLSC, 2009)
The source made the active and inactive calls. The rule behind the calls is not given here.

Target: MEK5 PB1 domain binding to MEKK2 (MAP3K2) mutant PB1, human
Assay: inhibitors of MEK5 binding to mutant MEKK2, dose response, biochemical, bead multiplex flow cytometry (AID 1895)
Details: Bead-based multiplex flow cytometry; for Ki: measured here: Ki for PB1 binding

SMILES	EC50	Ki [µM]
CCCN1C(=O)/C(=C\C=C2/Sc3ccccc3N2CC)SC1=S	inactive	2.61
C/C(=N\NC(=O)c1cc(O)cc(O)c1)c1ccc(NC(=O)Cc2ccccc2)cc1	> 30 µM (inactive)	
CCc1ccc(Nc2n[n+](-c3ccccc3)c(-c3cc(OC)c(OC)cc3Br)s2)cc1	8.3 µM	
CCOC(=O)c1c(CSC(=N)N)n(-c2ccc(C)cc2)c2cc(Br)c(OC(C)=O)cc12	10.3 µM	
Nc1ccc(N)c(C(=O)O)c1	> 30 µM (inactive)	
C#CCOCCOCCOCCNc1nc(N2CCN(C(=O)[C@H](Cc3ccc(O)cc3)n3cc([C@@H](N)C(C)CC)nn3)CC2)nc(N2CCN(C(=O)[C@H](Cc3cc4ccccc4[nH]3)n3cc([C@@H](N)CC(C)C)nn3)CC2)n1 (stereo partly drawn)	24.9 µM	
CCCCCc1cc(=O)oc2c(C(CCN3CCCCC3)c3ccc(OC)cc3)c(OC)cc(OC)c12 (stereo not drawn)	> 30 µM (inactive)	
C#CCOCCOCCOCCNc1nc(N2CCN(C(=O)[C@H](Cc3cc4ccccc4[nH]3)n3cc([C@@H](N)CC(C)C)nn3)CC2)nc(N2CCN(C(=O)[C@H](Cc3cc4ccccc4[nH]3)n3cc([C@@H](N)CC(C)C)nn3)CC2)n1	1.44 µM	
C#CCOCCOCCOCCNc1nc(N2CCN(C(=O)[C@H](Cc3ccc(O)cc3)n3cc([C@@H](N)CC(C)C)nn3)CC2)nc(N2CCN(C(=O)[C@H](Cc3ccc(O)cc3)n3cc([C@@H](N)CC(C)C)nn3)CC2)n1	25.1 µM	
CN1CCN(CC(O)COc2ccc(C34CC5CC(CC(C5)C3)C4)cc2)CC1 (stereo not drawn)	> 30 µM (inactive)	
CCCCCCCCCCOC(=O)Cn1c(COc2cccc(OC)c2)[n+](C)c2ccccc21	21.5 µM	
CCOC(=O)C1=C(c2ccccc2)NC(N)=NC1c1ccc(OCc2ccc(Cl)cc2)c(OC)c1 (stereo not drawn)	9.64 µM	
COc1ccc2nc(C)cc(N/N=C/c3ccc(F)cc3)c2c1	> 30 µM (inactive)	
CCCOc1ccc2c(c1)C(=NN=C(N)N)c1cc(OCCC)ccc1-2	9.98 µM	
CCN1/C(=C/c2ccc3cc(C)ccc3[n+]2C)Sc2ccc3sccc3c21	> 30 µM (inactive)	
COC(=O)c1c(C)oc(C)c1S(=O)(=O)N(Cc1ccccc1)C(C)C	> 30 µM (inactive)	
CN(c1ccccc1)c1ccc(/C=c2\s/c(=C(/C#N)C(=O)C(C)(C)C)n(Cc3ccco3)c2=O)cc1	inactive	0.16
O=C1Nc2ccc(Br)cc2/C1=N/N=C/C1=C(N2CCOCC2)C(=C\c2ccccc2)/CC1	inactive	2.03
O=C(OCC1O[C@@H](OC(=O)c2cc(O)c(O)c(O)c2)[C@@H](OC(=O)c2cc(O)c(O)c(O)c2)[C@@H](OC(=O)c2cc(O)c(O)c(O)c2)[C@@H]1OC(=O)c1cc(O)c(O)c(O)c1)c1cc(O)c(O)c(O)c1 (stereo partly drawn)	> 30 µM (inactive)	
CCN(CC)CCOC(=O)c1ccc(N/C=C(/C#N)c2nc(-c3ccc(OC)c(OC)c3)cs2)cc1	> 30 µM (inactive)	
C#CCOCCOCCOCCNc1nc(N2CCN(C(=O)C([C@@H](C)CC)n3cc(C(N)COC(=O)C(F)(F)F)nn3)CC2)nc(N2CCN(C(=O)[C@H](CCCCN)n3cc(C(N)[C@H](C)CC)nn3)CC2)n1 (stereo partly drawn)	> 30 µM (inactive)	
CCN(Cc1ccccc1)S(=O)(=O)c1ccc(C(=O)N(CCCN(C)C)c2nc3ccc(F)cc3s2)cc1	7.18 µM	
CCCSc1ncnc2sc(C)c(C)c12	> 30 µM (inactive)	
CSc1cccc(NC(=S)N(CCCN2CCCC2)Cc2cccn2Cc2ccc(Cl)cc2)c1	7.1 µM	
Cc1ccc(-n2cc(CNCCCn3ccnc3C)c(-c3ccc(F)cc3)n2)cc1	> 30 µM (inactive)	

SMILES	EC50	Ki [µM]
Cc1ccc(-c2c[n+](CC(=O)Nc3nc(-c4ccc(F)cc4)cs3)c3n2CCC3)cc1	> 30 µM (inactive)	
CCn1cc(C(=O)O)c(=O)c2cc(F)c(N3CCN(C(=S)NC(=O)c4ccc(Br)cc4)CC3)cc21	> 30 µM (inactive)	
CCOc1cccc2sc(N(CCCN(C)C)C(=O)c3ccc(S(=O)(=O)N4CCc5ccccc5C4)cc3)nc12	12.1 µM	
C#CCOCCOCCOCCNc1nc(N2CCN(C(=O)[C@H](Cc3cc4ccccc4[nH]3)n3cc([C@@H](N)C(C)CC)nn3)CC2)nc(N2CCN(C(=O)[C@H](CCCCN)n3cc([C@@H](N)CC(C)C)nn3)CC2)n1 (stereo partly drawn)	10.3 µM	
C#CCOCCOCCOCCNc1nc(N2CCN(C(=O)[C@H](Cc3cc4ccccc4[nH]3)n3cc([C@@H](N)C(C)CC)nn3)CC2)nc(N2CCN(C(=O)[C@H](Cc3cc4ccccc4[nH]3)n3cc([C@@H](N)CC(C)C)nn3)CC2)n1 (stereo partly drawn)	3.62 µM	
COCCNC(=O)CN(c1cc(Cl)ccc1OC)S(=O)(=O)c1ccc(C)c([N+](=O)[O-])c1	> 30 µM (inactive)	
Cc1ccc(CN2CCSc3ccc(C(=O)NC4CCN(Cc5ccccc5)CC4)cc32)cc1	4.92 µM	
Cc1nn2c(N)csc2nc1=O	inactive	3.34
CCN1CCN(Cc2ccc(NC(=O)c3cc(NC(=O)C(=O)c4c[nH]c5ccccc45)cc(OC)c3)cc2C(F)(F)F)CC1	0.5 µM	
CCN(CC)CCOc1ccc2c(c1)C(=NNC(=O)c1ccccn1)c1cc(OCCN(CC)CC)ccc1-2	5.52 µM	
CCN1/C(=C/C(C)=C/c2sc3ccccc3[n+]2CC)Sc2ccccc21	> 30 µM (inactive)	
CCN1CCN(CCNC(=O)c2ccc(/C=C3/Sc4ccccc4N(Cc4cccc(C)c4)C3=O)cc2)CC1	10.6 µM	
CN1CCN(CC(=O)N2CCn3c4c(c5cc(C6CCCCC6)ccc53)CCCC42)CC1 (stereo not drawn)	> 30 µM (inactive)	
CCN(CC)CCOC(=O)c1ccc(NC(=O)c2cn(-c3ccccc3)nc2-c2cccs2)cc1	> 30 µM (inactive)	
N=C(N)SCc1cn(-c2ccccc2)nc1-c1ccc(Br)cc1	8.53 µM	
C#CCOCCOCCOCCNc1nc(N2CCN(C(=O)[C@H]([C@@H](C)CC)n3cc([C@@H](N)CC(C)C)nn3)CC2)nc(N2CCN(C(=O)[C@H](Cc3cc4ccccc4[nH]3)n3cc([C@@H](N)Cc4ccc(O)cc4)nn3)CC2)n1	> 30 µM (inactive)	
CN(C)CCNc1ncnc2c1sc1nc(-c3ccccc3)c3c(c12)CCCC3	4.06 µM	
CN1CCN(c2ccc(NC(=O)c3ccc(-c4ccc(Cl)cc4)o3)cc2)CC1	> 30 µM (inactive)	
Nc1ccc2nc(-c3ccc(-c4nc5ccc(N)cc5[nH]4)cc3)[nH]c2c1	> 30 µM (inactive)	
O=[N+]([O-])c1ccc(/C=C/C2=NN(c3ccccc3)C(c3ccco3)C2)o1 (stereo not drawn)	> 30 µM (inactive)	
CN(C)CCCn1c(SCC(=O)Nc2nc(-c3cccc(Br)c3)cs2)nc2ccccc2c1=O	> 30 µM (inactive)	
Cc1cc2ccccc2n1CCNC(=O)c1ccc(Br)o1	inactive	2.87
CCc1ccc(-c2nn(-c3ccccc3)cc2CSC(=N)N)cc1	5.27 µM	
CCCCCc1cc(=O)oc2c(C(CCN3CCCC(C)C3)c3ccc4c(c3)OCO4)c(OC)cc(OC)c12 (stereo not drawn)	> 30 µM (inactive)	

More lines, now with the values ahead:

EC50	Ki [µM]	SMILES
12 µM		CCCCCc1cc(=O)oc2c(C(CCN3CCCC(C)C3)c3ccc(OC)cc3)c(OC)cc(OC)c12 (stereo not drawn)
> 30 µM (inactive)		CCOC(=O)N1CCN(c2c(N3CCN(c4ccccc4F)CC3)c(=O)c2=O)CC1
> 30 µM (inactive)		CN(C)CCCN(C(=O)c1ccc2c(c1)CCCC2)c1nc2ccc(Cl)cc2s1
> 30 µM (inactive)		COc1ccc(-c2csc(N(CCCN(C)C)C(=O)c3ccccc3Cl)n2)cc1
> 30 µM (inactive)		CC(=O)Nc1cccc2c1C(=O)N(c1cccc(C)c1)C2=O
inactive		CN(C)c1ccc(/C=C/C=C2/SC(=S)N(c3ccccc3)C2=O)cc1
> 30 µM (inactive)		COc1ccccc1N1CCN(S(=O)(=O)c2ccc(Cl)s2)CC1
3.35 µM	3.28	CCN1C(c2ccccc2)=C(c2ccccc2)S/C1=C\C=C1/SC(=S)N(C)C1=O
4.57 µM		CCCCCCCCCCOC(=O)Cn1c(COc2ccc(C)cc2)[n+](C)c2ccccc21
> 30 µM (inactive)		COc1ccc2[nH]c3c(C)c4ccncc4c(C)c3c2c1
> 30 µM (inactive)		CC[C@@H](C)[C@H](CNC)NC[C@@H](Cc1cccc2ccccc12)NCCc1cccc(C(F)(F)F)c1
1.02 µM		CCCCCCCCCCOC(=O)Cn1c(COc2ccccc2C)[n+](C)c2ccccc21
> 30 µM (inactive)		COCc1c(C#N)c(NCCc2ccccc2)nc(C)c1[N+](=O)[O-]
1.77 µM	1.73	CCN1/C(=C/c2ccc3cc(C)cc(C)c3[n+]2CC)Sc2cc(C)ccc21
> 30 µM (inactive)		CCOC(=O)c1c(C)n(-c2ccc(C)cc2)c2ccc(OCC(O)CN3CCN(C)CC3)cc12 (stereo not drawn)
> 30 µM (inactive)		CCN(CC)CCOC(=O)c1ccc(N/C=C(/C#N)c2nc(-c3ccc(OC)cc3)cs2)cc1

EC50	Ki [µM]	SMILES
inactive	0.95	CS(=O)(=O)N1N=C(c2ccccc2)CC1c1ccc2c(c1)OCO2 (stereo not drawn)
> 30 µM (inactive)		COc1ccc(NC(=O)N(Cc2cc3cc(C)ccc3[nH]c2=O)CC2CCCO2)cc1 (stereo not drawn)
> 30 µM (inactive)		CCN1CCN(Cc2ccc(NC(=O)c3ccc(C)c(NC(=O)C(=O)c4c[nH]c5ccccc45)c3)cc2C(F)(F)F)CC1
> 30 µM (inactive)		CNc1nc(-c2c[nH]c3ccccc23)cs1
> 30 µM (inactive)		C#CCOCCOCCOCCNc1nc(N2CCN(C(=O)[C@H]([C@@H](C)CC)n3cc([C@@H](N)CO)nn3)CC2)nc(N2CCN(C(=O)[C@H](Cc3cc4ccccc4[nH]3)n3cc([C@@H](N)C(C)CC)nn3)CC2)n1 (stereo partly drawn)
22.8 µM		CCCCN(CC)CCNC(=O)c1cc2c(-c3ccc(Cl)cc3)nn(C)c2s1
> 30 µM (inactive)		COc1ccc(-n2nc3c(N)n[nH]c3cc2=O)cc1
6.53 µM		CCN1CCN(CCNC(=O)c2ccc(/C=C3/Sc4ccccc4N(Cc4cccc(Cl)c4)C3=O)cc2)CC1
> 30 µM (inactive)		NC(=NCCCCCCN=C(N)/N=C(\N)Nc1ccc(Cl)cc1)/N=C(\N)Nc1ccc(Cl)cc1
2.38 µM		CCOC(=O)C1=C(c2ccccc2)NC(N)=NC1c1ccc(OCc2ccc(C(=O)OC)cc2)cc1 (stereo not drawn)
> 30 µM (inactive)		NC(N)=N/N=C/c1ccc(OCc2ccccc2Cl)cc1
inactive		CC(C)N=c1cc2n(-c3ccc(Cl)cc3)c3ccccc3nc-2cc1Nc1ccc(Cl)cc1
> 30 µM (inactive)		COc1ccc(-c2[nH]ncc2CN2CCCCCCC2)c(OC)c1
> 30 µM (inactive)		CN1C(=O)/C(=C\c2ccc(-c3ccccc3)o2)SC1=S
> 30 µM (inactive)		CCCCCc1cc(=O)oc2c(C(CCN3CCCCC3)c3ccc4c(c3)OCO4)c(OC)cc(OC)c12 (stereo not drawn)
